From patent publication US5770573A, “CS-1 peptidomimetics, compositions and methods of using the same” (Cytel Corporation, priority 1995, dated 1998) come the findings set out here.

The nature of data set [1]: Loss of potency in PBS containing 10 percent mouse or human serum. Particulars: PBS at 7.2-7.4 with 10 percent mouse or human serum; 24 hours.
The test system of data set [2] is rabbit cardiac allograft coronary arteries. Briefly: Rabbit cardiac allograft model. For Expression on Coronary Arteries: ICAM-1: key: -: negative; ±: minimal; +: little; ++: moderately abundant; +++: very abundant. For Expression on Coronary Arteries: Macrophages: key: -: negative; ±: minimal; +: little; ++: moderately abundant; +++: very abundant. For Expression on Coronary Arteries: T cells: key: -: negative; ±: minimal; +: little; ++: moderately abundant; +++: very abundant. For Expression on Coronary Arteries: Total Fibronectin: key: -: negative; ±: minimal; +: little; ++: moderately abundant; +++: very abundant. Format: in vivo. The text has this:
New Zealand white rabbit SPF hearts were allografted into the necks of similar rabbits to assay a graft-vs-host immunorejection model and the affect of a contemplated compound on that immunoinflammatory response.
Experimental animal model New Zealand white female rabbits (Charles River Lab., Saint Laurent, Quebec), between 3.5 and 4 kg underwent heterotopic cardiac transplant following an experimental protocol previously described [Alonso et al., Am. J. Pathol., 87:415-442 (1977); Clausell et al., Circulation, 89:2768-2779 (1994)]. The animals were unselected to favor an HLA-mismatch, the host rabbits were Pasteurella-free and the donors, outbred animals. Both host and donor rabbits were fed Purina 5321-0.5 percent cholesterol diet (Research Diets Inc., New Brunswick, N.J.), a strategy that has proven useful in accelerating the process of allograft arteriopathy [Alonso et al., Am. J. Pathol., 87:415-442 (1977)]. The diet was commenced four days prior to the transplant and continued in the recipient of the transplant until the completion of the experimental period.
The technique of heterotopic cardiac transplantation has been previously described [Clausell et al., Circulation, 89:2768-2779 (1994)]. Briefly, a vertical incision was performed in the anterior aspect of the neck of the recipient rabbit and the left common carotid artery and the ipsilateral external jugular vein were isolated. The cardiac allograft was placed in the neck by anastomosing the aorta end-to-side to the recipient's carotid artery and the pulmonary end-to-side to the recipient's external jugular vein, following a total period of ischemia for the donor hearts of approximately 30 minutes. Postoperative care was in compliance with the Principles of Laboratory Animal Care formulated by the Canadian National Society for Medical Research.
Beginning the day of the transplant, the animals were randomized and treated with either scrambled compound (control group) at 1 mg/kg s.c. or the inhibitor compound at 1 mg/kg s.c. The doses of the compounds were empirically extrapolated to the in vivo model based on preliminary in vitro studies, of Table 1. No other immunosuppression therapy was administered. The grafts were monitored daily by palpation and maintained for 7 to 8 days, a previously described endpoint that was associated with myocardial rejection (impaired cardiac contractility) and development of the allograft arteriopathy in this model [Clausell et al., Circulation, 89:2768-2779 (1994)]. A total of fourteen animals were studied in the control (n=7) and treated (n=7) groups.
Preparation of the hearts The animals were sacrificed using a lethal dose of euthanol (480 mg i.v.) (MTC Pharmaceutical, Cambridge, Oreg.), host and donor hearts were removed, and the coronary arteries were perfused with saline through the aorta, followed by light fixation by perfusion with 2 percent paraformaldehyde (Sigma, St, Louis, Mo.). […] Different sections of the hearts were either saved in 10 percent formalin (BDH Inc., Toronto, ON) for light microscopy studies or immediately frozen in O.T.C. Compound Tissue Tek (Miles Inc., Elkart, In.) for specific immunohistochemistry studies.
Three different paraffin-embedded tissue sections from host and donor hearts from both control and treated rabbits were stained by the Movat pentachrome method for light microscopy. Morphometric analysis was performed using a Zeiss microscope attached to a computer-generated video analysis system (Perceptics Inc., NuVision software), as described in Clausell et al., Circulation, 89:2768-2779 (1994). The number of vessels with intimal lesions were counted in all three heart sections from each animal studied and are expressed as a percentage of the total vessel number.
In the host hearts, 999 vessels in the control group and 1054 vessels in the treated group were analyzed. In the donor hearts, 827 vessels in the control group and 617 vessels in the treated group were analyzed. […]

Square brackets hold non-standard residues; d marks the D form. Peptide text beside a SMILES is read from it. * marks the point of attachment. PhAc = O=C(Cc1ccccc1)*

As to `CC(C)C[C@H](NC(=O)Cc1ccccc1)C(=O)N[C@@H](CC(=O)O)C(=O)N[C@@H](Cc1ccccc1)C(=O)N1CCC[C@@H]1C(N)=O` [Compound ID No. 896.52, N-phenylacetyl-Leu-Asp-Phe-D-Pro-NH2] (PhAc-LDF[dP]-NH2), in data set [1], the “loss of potency in serum” value is listed as “no loss of potency”. For the same compound, in data set [2] (1 mg/kg s.c., 7 to 8 days), the “Expression on Coronary Arteries: ICAM-1” value is “±”, the “Expression on Coronary Arteries: Macrophages” value is listed as “±”, the “Expression on Coronary Arteries: T cells” value is recorded as “±” and the “Expression on Coronary Arteries: Total Fibronectin” value is reported as “±”. In addition, the “Expression on Coronary Arteries: VCAM-1” value in data set [2] (1 mg/kg s.c., 7 to 8 days) is “±”. In addition, in data set [2] (1 mg/kg s.c., 7 to 8 days, immunoperoxidase score), the “Expression on Coronary Arteries: MHC Class II” value is on record as “±”. In data set [2] (donor hearts, 1 mg/kg s.c.), the “Vessel Intimal Thickening: Percent of Vessels” value came out at 35% and the “Vessel Intimal Thickening: Severity (Percent of Vessel area)” value was 16%. In addition, in data set [2] (host heart), the “Baseline (rabbit own host heart) of incidence” value is on record as 12% and the “Baseline (rabbit own host heart) of severity” value worked out at 12%.
